Reference: patent publication US8796245B2 (TetraPhase Pharmaceuticals, Inc., priority 2008, dated 2014)
≈ marks a conversion by molar mass, not a printed value.

Assays:
Format in all cases: cell-based
[1] = test system: S. aureus SA161 (tet resistant: tet(M) ribosomal protection); assay: Minimum inhibitory concentration assay, SA161; conditions: Staphylococcus aureus, read-out: MICs SA161
Protocol: (§1) Frozen bacterial strains were thawed and subcultured onto Mueller Hinton Broth (MHB) or other appropriate media (Streptococcus requires blood and Haemophilus requires hemin and NAD). Following incubation overnight, the strains were subcultured onto Mueller Hinton Agar and again incubated overnight. […] Isolated colonies were selected to prepare a starting inoculum equivalent to a 0.5 McFarland standard. The starting inoculum was diluted 1:125 using MHB for further use. Test compounds were prepared by dilution in sterile water to a final concentration of 5.128 mg/mL. Antibiotics (stored frozen, thawed and used within 3 hours of thawing) and compounds were further diluted to the desired working concentrations.
(§2) The assays were run as follows. Fifty μL of MHB was added to wells 2-12 of a 96-well plate. One hundred […] of appropriately diluted antibiotics was added to well 1. Fifty μL of antibiotics was removed from well 1 and added to well 2 and the contents of well 2 mixed by pipetting up and down five times. Fifty μL of the mixture in well 2 was removed and added to well 3 and mixed as above. Serial dilutions were continued in the same manner through well 12. Fifty μL was removed from well 12 so that all contained 50 μL. Fifty μL of the working inoculum was then added to all test wells. A growth control well was prepared by adding 50 μL of working inoculum and 50 μL of MHB to an empty well. The plates were then incubated at 37° C. overnight, removed from the incubator and each well was read on a plate reading mirror. The lowest concentration (MIC) of test compound that inhibited the growth of the bacteria was recorded.

[2] = test system: S. aureus ATCC 29213 (SA101, MSSA); assay: Minimum inhibitory concentration assay, SA101; conditions: Staphylococcus aureus; S. aureus ATCC 29213, MSSA control; read-out: MICs SA101
Protocol: as §1, §2

[3] = test system: E. cloacae ATCC 13047 (EC108); assay: Minimum inhibitory concentration assay, EC108; conditions: Enterobacter cloacae, ATCC13047; E. cloacae ATCC 13047, wt; read-out: MICs EC108
Protocol: as §1, §2

[4] = test system: S. pneumoniae ATCC 49619 (SP106); assay: Minimum inhibitory concentration assay, SP106; conditions: Streptococcus pneumoniae, ATCC49619; S. pneumoniae ATCC 49619, wt; read-out: MICs SP106
Protocol: as §1, §2

[5] = test system: S. pneumoniae SP160 (tet resistant: tet M); assay: Minimum inhibitory concentration assay, SP160; conditions: Streptococcus pneumoniae, read-out: MICs SP160
Protocol: as §1, §2

[6] = test system: E. faecalis EF159 (tet resistant: tetM); assay: Minimum inhibitory concentration assay, EF159; conditions: Enterococcus faecalis, read-out: MICs EF159
Protocol: as §1, §2

[7] = test system: S. aureus SA158 (tet resistant: tetK efflux); assay: microbe, parasite or virus in culture; conditions: Staphylococcus aureus, read-out: MICs SA158
Protocol: as §1, §2

[8] = test system: K. pneumoniae KP153 (tet resistant: tetA efflux); assay: microbe, parasite or virus in culture; conditions: Klebsiella pneumoniae, read-out: MICs KP153
Protocol: as §1, §2

[9] = test system: E. coli EC155 (tet resistant: tetA efflux); assay: microbe, parasite or virus in culture; conditions: Escherichia coli; E. coli tet resistant: tetA (efflux); read-out: MICs EC155
Protocol: as §1, §2

[10] = test system: K. pneumoniae ATCC 13883 (KP109); assay: Minimum inhibitory concentration assay, KP109; conditions: Klebsiella pneumoniae, ATCC13883; K. pneumoniae ATCC 13883, wt; read-out: MICs KP109
Protocol: as §1, §2

[11] = test system: S. aureus ATCC 13709 (SA100, MSSA, Smith strain); assay: Minimum inhibitory concentration assay, SA100; conditions: Staphylococcus aureus; S. aureus ATCC 13709, MSSA Smith strain; read-out: MICs SA100
Protocol: as §1, §2

[12] = test system: A. baumanii ATCC 19606 (AB110); assay: Minimum inhibitory concentration assay, AB110; conditions: Acinetobacter baumannii, ATCC19606; A. baumanii ATCC 19606, wt; read-out: MICs AB110
Protocol: as §1, §2

[13] = test system: E. coli ATCC 25922 (EC107); assay: Minimum inhibitory concentration assay, EC107; conditions: Escherichia coli, ATCC25922; E. coli ATCC 25922, wt; read-out: MICs EC107
Protocol: as §1, §2

[14] = test system: P. aeruginosa ATCC 27853 (PA111); assay: Minimum inhibitory concentration assay, PA111; conditions: Pseudomonas aeruginosa, ATCC27853; P. aeruginosa ATCC 27853, wt; read-out: MICs PA111
Protocol: as §1, §2

[15] = test system: E. faecalis ATCC 29212 (EF103); assay: Minimum inhibitory concentration assay, EF103; conditions: Enterococcus faecalis, ATCC29212, read-out: MICs EF103
Protocol: as §1, §2

Structure (SMILES) | MIC [1] [µg/mL] | MIC [2] [µg/mL] | MIC [3] [µg/mL] | MIC [4] [µg/mL] | MIC [5] [µg/mL] | MIC [6] [µg/mL] | MIC [7] [µg/mL] | MIC [8] [µg/mL] | MIC [9] [µg/mL] | MIC [10] [µg/mL] | MIC [11] [µg/mL] | MIC [12] [µg/mL] | MIC [13] [µg/mL] | MIC [14] [µg/mL] | MIC [15] [µg/mL]
CN(C)[C@@H]1C(O)=C(C(N)=O)C(=O)[C@@]2(O)C(O)=C3C(=O)c4c(O)c(NC(=O)CN5CCOCC5)cc(F)c4C[C@H]3C[C@@H]12 [Compound 44] | 8 (≈ 13.9 µM) | 4 (≈ 6.96 µM) | > 32 | 0.5 (≈ 0.87 µM) | 1 (≈ 1.74 µM) | 8 (≈ 13.9 µM) | 8 (≈ 13.9 µM) | > 32 | > 32 | > 32 | 4 (≈ 6.96 µM) | 8 (≈ 13.9 µM) | 32 (≈ 55.7 µM) | > 32 | 8 (≈ 13.9 µM)
CN(CC(=O)Nc1cc(F)c2c(c1O)C(=O)C1=C(O)[C@]3(O)C(=O)C(C(N)=O)=C(O)[C@@H](N(C)C)[C@@H]3C[C@@H]1C2)C1CCCC1 [Compound 31] | 2 (≈ 3.41 µM) | 1 (≈ 1.7 µM) | 8 (≈ 13.6 µM) | 0.25 (≈ 0.426 µM) | 0.25 (≈ 0.426 µM) | 1 (≈ 1.7 µM) | 1 (≈ 1.7 µM) | 8 (≈ 13.6 µM) | 8 (≈ 13.6 µM) | 4 (≈ 6.82 µM) | 2 (≈ 3.41 µM) | 0.5 (≈ 0.852 µM) | 2 (≈ 3.41 µM) | > 32 | 0.5 (≈ 0.852 µM)
CCN(C)CC(=O)Nc1cc(F)c2c(c1O)C(=O)C1=C(O)[C@]3(O)C(=O)C(C(N)=O)=C(O)[C@@H](N(C)C)[C@@H]3C[C@@H]1C2 [Compound 24] | 0.125 (≈ 0.229 µM) | 0.25 (≈ 0.457 µM) | 2 (≈ 3.66 µM) | ≤ 0.0156 | ≤ 0.0156 | ≤ 0.0156 | 0.125 (≈ 0.229 µM) | 8 (≈ 14.6 µM) | 8 (≈ 14.6 µM) | 1 (≈ 1.83 µM) | 0.25 (≈ 0.457 µM) | 0.0313 (≈ 0.0573 µM) | 0.5 (≈ 0.915 µM) | 16 (≈ 29.3 µM) | ≤ 0.0156
CN(C)[C@@H]1C(O)=C(C(N)=O)C(=O)[C@@]2(O)C(O)=C3C(=O)c4c(O)c(NC(=O)CNC(C)(C)C)cc(F)c4C[C@H]3C[C@@H]12 [Compound 11] | 0.25 (≈ 0.446 µM) | 0.125 (≈ 0.223 µM) | 1 (≈ 1.78 µM) | ≤ 0.0156 | ≤ 0.0156 | 0.125 (≈ 0.223 µM) | 0.0625 (≈ 0.111 µM) | 2 (≈ 3.57 µM) | 2 (≈ 3.57 µM) | 1 (≈ 1.78 µM) | 0.25 (≈ 0.446 µM) | 0.5 (≈ 0.892 µM) | 0.25 (≈ 0.446 µM) | 16 (≈ 28.5 µM) | 0.0625 (≈ 0.111 µM)
CCCCCCNCC(=O)Nc1cc(F)c2c(c1O)C(=O)C1=C(O)[C@]3(O)C(=O)C(C(N)=O)=C(O)[C@@H](N(C)C)[C@@H]3C[C@@H]1C2 [Compound 14] | 0.5 (≈ 0.849 µM) | 0.5 (≈ 0.849 µM) | 2 (≈ 3.4 µM) | 0.03 (≈ 0.051 µM) | 0.125 (≈ 0.212 µM) | 0.25 (≈ 0.425 µM) | 0.25 (≈ 0.425 µM) | 2 (≈ 3.4 µM) | 4 (≈ 6.8 µM) | 1 (≈ 1.7 µM) | 0.25 (≈ 0.425 µM) | 0.25 (≈ 0.425 µM) | 0.5 (≈ 0.849 µM) | 16 (≈ 27.2 µM) | 0.125 (≈ 0.212 µM)
CN(C)[C@@H]1C(O)=C(C(N)=O)C(=O)[C@@]2(O)C(O)=C3C(=O)c4c(O)c(NC(=O)CC5CC(F)C5)cc(F)c4C[C@H]3C[C@@H]12 (stereo partly drawn) [Compound 33] | 1 (≈ 1.78 µM) | 0.25 (≈ 0.445 µM) | 16 (≈ 28.5 µM) | ≤ 0.0156 | 0.125 (≈ 0.223 µM) | 1 (≈ 1.78 µM) | 2 (≈ 3.56 µM) | > 32 | > 32 | 4 (≈ 7.12 µM) | 0.5 (≈ 0.89 µM) | 4 (≈ 7.12 µM) | 2 (≈ 3.56 µM) | > 32 | 0.25 (≈ 0.445 µM)
